Tests used:
[1] = target: ATP-dependent translocase ABCB1 (Homo sapiens, UniProt P08183); test: TP_TRANSPORTER: transepithelial transport (basal to apical) in MDR1-expressing LLC-PK1 cells; type: functional, cell-based; details: pig
[2] = target: T1, ATP-dependent translocase ABCB1 (Mus musculus, UniProt P21447); test: TP_TRANSPORTER: transepithelial transport (basal to apical) in mdr1a-expressing LLC-PK1 cell; type: functional, cell-based; details: pig
[3] = target: T1, ATP-dependent translocase ABCB1; test: TP_TRANSPORTER: tissue concentration in mdr1a(-/-) mouse; type: functional, organism-based; details: in vivo

T1 sequence (P21447 whole entry): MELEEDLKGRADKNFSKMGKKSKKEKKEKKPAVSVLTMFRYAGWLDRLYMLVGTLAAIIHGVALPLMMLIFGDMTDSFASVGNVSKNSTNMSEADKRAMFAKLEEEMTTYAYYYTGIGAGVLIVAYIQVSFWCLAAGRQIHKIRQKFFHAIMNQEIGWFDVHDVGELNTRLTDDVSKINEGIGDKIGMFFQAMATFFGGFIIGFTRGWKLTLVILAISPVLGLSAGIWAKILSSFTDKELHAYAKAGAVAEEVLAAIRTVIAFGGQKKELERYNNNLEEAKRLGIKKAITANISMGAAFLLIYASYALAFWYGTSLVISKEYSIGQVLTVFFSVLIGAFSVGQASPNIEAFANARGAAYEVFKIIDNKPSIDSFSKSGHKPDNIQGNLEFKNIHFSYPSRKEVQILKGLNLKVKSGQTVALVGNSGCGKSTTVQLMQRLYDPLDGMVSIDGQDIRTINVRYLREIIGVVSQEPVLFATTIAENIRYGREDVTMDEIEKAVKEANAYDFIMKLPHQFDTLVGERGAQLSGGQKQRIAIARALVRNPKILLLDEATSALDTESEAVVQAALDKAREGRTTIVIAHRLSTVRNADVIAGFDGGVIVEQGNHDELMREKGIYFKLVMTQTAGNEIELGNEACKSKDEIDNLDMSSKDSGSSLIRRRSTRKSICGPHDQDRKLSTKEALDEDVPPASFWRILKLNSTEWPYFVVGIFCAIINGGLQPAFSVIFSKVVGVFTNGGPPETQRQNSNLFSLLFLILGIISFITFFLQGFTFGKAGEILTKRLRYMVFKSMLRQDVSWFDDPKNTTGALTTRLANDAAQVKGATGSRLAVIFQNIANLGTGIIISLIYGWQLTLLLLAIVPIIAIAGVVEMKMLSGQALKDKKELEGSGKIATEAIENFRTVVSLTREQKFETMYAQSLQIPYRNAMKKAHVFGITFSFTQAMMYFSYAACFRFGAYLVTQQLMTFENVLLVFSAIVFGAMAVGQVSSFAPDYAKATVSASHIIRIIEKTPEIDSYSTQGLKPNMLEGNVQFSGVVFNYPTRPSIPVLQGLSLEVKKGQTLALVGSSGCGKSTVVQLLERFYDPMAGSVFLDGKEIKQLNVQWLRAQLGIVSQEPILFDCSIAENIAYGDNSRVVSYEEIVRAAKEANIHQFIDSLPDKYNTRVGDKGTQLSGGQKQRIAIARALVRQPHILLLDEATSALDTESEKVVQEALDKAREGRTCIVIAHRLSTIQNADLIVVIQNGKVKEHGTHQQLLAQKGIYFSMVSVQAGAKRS
Sequence of ATP-dependent translocase ABCB1 (Homo sapiens, UniProt P08183) (P08183 whole entry): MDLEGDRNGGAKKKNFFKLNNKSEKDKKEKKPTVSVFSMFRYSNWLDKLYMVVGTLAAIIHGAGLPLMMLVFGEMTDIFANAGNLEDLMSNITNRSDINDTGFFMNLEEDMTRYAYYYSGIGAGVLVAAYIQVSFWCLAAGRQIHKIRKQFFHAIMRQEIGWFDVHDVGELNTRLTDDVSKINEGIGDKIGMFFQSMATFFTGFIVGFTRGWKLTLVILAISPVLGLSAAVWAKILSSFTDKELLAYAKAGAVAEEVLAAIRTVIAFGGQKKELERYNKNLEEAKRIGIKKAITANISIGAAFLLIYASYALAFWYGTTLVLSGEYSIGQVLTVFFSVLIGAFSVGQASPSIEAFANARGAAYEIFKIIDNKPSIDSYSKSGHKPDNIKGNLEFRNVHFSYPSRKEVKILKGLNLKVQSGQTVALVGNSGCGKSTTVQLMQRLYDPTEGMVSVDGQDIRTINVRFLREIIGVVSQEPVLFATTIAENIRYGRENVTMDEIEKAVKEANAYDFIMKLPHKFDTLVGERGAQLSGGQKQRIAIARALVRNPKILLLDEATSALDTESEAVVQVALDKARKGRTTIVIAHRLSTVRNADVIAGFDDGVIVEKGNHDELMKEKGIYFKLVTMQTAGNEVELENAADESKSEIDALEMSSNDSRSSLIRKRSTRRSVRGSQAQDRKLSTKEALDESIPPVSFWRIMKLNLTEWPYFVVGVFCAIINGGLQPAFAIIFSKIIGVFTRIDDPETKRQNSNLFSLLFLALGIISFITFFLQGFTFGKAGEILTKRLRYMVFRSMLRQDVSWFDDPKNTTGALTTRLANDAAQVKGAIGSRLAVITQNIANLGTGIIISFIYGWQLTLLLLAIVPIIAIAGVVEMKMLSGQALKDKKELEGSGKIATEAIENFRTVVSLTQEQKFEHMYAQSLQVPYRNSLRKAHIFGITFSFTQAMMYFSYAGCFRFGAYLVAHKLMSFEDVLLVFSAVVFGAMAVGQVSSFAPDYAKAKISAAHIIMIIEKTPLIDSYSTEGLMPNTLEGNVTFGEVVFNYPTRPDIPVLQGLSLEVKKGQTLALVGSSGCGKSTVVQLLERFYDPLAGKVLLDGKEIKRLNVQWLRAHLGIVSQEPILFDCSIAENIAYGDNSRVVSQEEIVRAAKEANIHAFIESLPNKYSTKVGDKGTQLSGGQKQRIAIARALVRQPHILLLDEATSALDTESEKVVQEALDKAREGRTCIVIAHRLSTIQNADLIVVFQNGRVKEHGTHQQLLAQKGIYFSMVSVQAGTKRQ

Row | Activity [3] | Structure (SMILES) | Activity [1] | Activity [2]
1 | – | c1ccc2c(c1)cc1ccc3cccc4ccc2c1c34 | is not a substrate [-] | is not a substrate [-]
2 | is not a substrate [-] | CC1=C(/C=C/C(C)=C/C=C/C(C)=C/C(=O)O)C(C)(C)CCC1 [TRETINOIN] | is not a substrate [-] | is not a substrate [-]

Source: ChEMBL document CHEMBL2074094 (Arch Biochem Biophys, 1998)
